Tests used:
MDR1 = conditions: cited from earlier work
[1] = system: Aβ secretion in K269sw cells transfected with human pHaMDR1 construct; assay: Aβ secretion from K269sw cells transiently transfected with pHaMDR1 (W0-2 western blot); format: cell-based; conditions: RU49953 0.01-1.0 μM, fifteen minutes; FIG. 12
Description: K269sw cells were cultured in 20 mm Falcon dishes in DMEM containing 10% FBS, and […] geneticin (GIBCO) to about 50% confluence and transiently transfected with the human pHaMDR1 construct using the calcium-phosphate precipitation technique as described above. Cells were replated at a density of 2.0×10^6 cells/dish 8 hours post-transfection on 10 cm petri dishes as described above. To assay for transfection efficiency, the β-gal gene was also co-transfected into the cells. β-gal staining was performed to determine the percentage of cells within each dish which were successfully transfected with the cDNA.
Exposures were performed without resuspending the cells. 10 mL of DMEM containing either control (DMSO), PMA (0.1 μM), or RU486 (0.001 μM, 0.01 μM, 0.1 μM, 1.0 μM), were prepared. DMSO concentrations in the medium were normalized to 0.01% (v/v). The supplemented medium was aspirated and 1 mL of the appropriate medium was added to the cells. […] 5 μL from each sample was collected for protein quantification. […]
SDS-PAGE was used to resolve secreted protein on a 16.5% tris-tricine polyacrylamide gel. […] Aβ was visualized using ECL and quantitation was performed as previously described. […]
Exposures were performed without resuspending the cells. […] 5 μL from each sample was collected for protein quantification. […]

For `CC#C[C@]1(O)CC[C@H]2[C@@H]3CCC4=CC(=O)CCC4=C3[C@@H](c3ccc(N(C)C)cc3)C[C@@]21C` [RU49953, 17β-hydroxy-11β, 17α-[4-dimethylaminophenyl]-17α prop-1-ynyl estra-4, 9 dien-3 one], the “binding to and block of MDR1 mediated efflux” value (MDR1) is given as “bind to and block” and the “effect on Aβ secretion” value [1] is given as “reduces Aβ secretion in fifteen minutes in a dose-dependent manner”.

Source: patent US6514686B2, “Method and composition for modulating amyloidosis” (The University of British Columbia, priority 1997, dated 2003)
